Data on 7 compounds can be found in ChEMBL document CHEMBL1201862, “PubChem BioAssay data set” (2004).

“And” between values parts separate entries of the source, which are not always exact repeats. Equal values may be shown once.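 In this assay, cells in 96-well plates receive the compound at five concentrations for 48 hours. Endpoints are linearly interpolated between the surrounding concentrations. GI50: concentration for 50% inhibition of growth.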 The source made the active and inactive calls. No stated cut-off is given here; in the data, active = GI50 up to about 1.1 µM and inactive = higher. Peptide text beside a SMILES is read from it. * marks the point of attachment. Cbz = O=C(OCc1ccccc1)*

Holding throughout (experiment): NCI tumour cell line growth inhibition, 48 h
In assay [1] the test system is LOX IMVI.
Assay [2] deals with SR.
In assay [3] the test system is A549.
The test system of assay [4] is UACC-257.
Assay [5] deals with EKVX.
The test system of assay [6] is UACC-62.
The test system of assay [7] is NCI-H226.
Assay [8] has as its system BT-549.
For assay [9], the system named is U-251.
The subject of assay [10] is MDA-MB-435.
The subject of assay [11] is MDA-N.
The test system of assay [12] is CCRF-CEM.
Assay [13] has as its system SK-MEL-28.
The subject of assay [14] is NCI-H460.
Assay [15] concerns T47D.
Assay [16] relates to SNB-75.
The subject of assay [17] is RPMI-8226.
Assay [18] concerns SNB-19.
Assay [19] concerns IGROV-1.
The subject of assay [20] is HCT-116.

On to `C1CSCCCSCCCSCCCSCCCSC1`, for which the GI50 is 17.4 µM (inactive) in assay [1]; 11.4 µM (inactive) in assay [2]; 28.5 µM (inactive) in [3]; 25.5 µM (inactive) in [4]; 24.5 µM (inactive) in assay [5]; 44.6 µM (inactive) in assay [6]. The GI50 was 25.5 µM (inactive) in [7]; 33.8 µM (inactive) in [8]; 42.5 µM (inactive) in assay [9]; 41.9 µM (inactive) in assay [10]; 32.3 µM (inactive) in assay [11]; 8.55 µM (inactive) in [12]. For the same compound, the GI50 in [13] is > 100 µM (inactive); in assay [14], 14.4 µM (inactive); in assay [15], 17.2 µM (inactive); in assay [16], 20.1 µM (inactive); in [17] it was 5.32 µM (inactive); in assay [18] it was 37.9 µM (inactive). The values for the GI50 in assay [19] and in [20] were 31.1 µM (inactive) and 31.2 µM (inactive), respectively.

For `O=C(O)CCC(NC(=O)OCc1ccccc1)C(=O)NC(Cc1c[nH]cn1)C(=O)O` (stereo not drawn) (Cbz-Glu-His-OH; configuration not given here), the GI50 in assay [1], in assay [2], in [3], in assay [4], in assay [5] and in assay [6] was > 100 µM (inactive) throughout. For the same compound, the GI50 in assay [7], in assay [8], in assay [9], in assay [10], in assay [11] and in assay [12] was > 100 µM (inactive) each time. The GI50 in assay [13], in assay [14], in [15], in assay [16], in assay [17] and in assay [18] was > 100 µM (inactive) each time. Also, the GI50 in [19] and in assay [20] was > 100 µM (inactive) throughout.

For `O=C(Nc1ccccc1C(=O)O)/C(=C/c1ccccc1)NC(=O)c1ccccc1`, the GI50 in assay [1], in assay [2], in assay [3], in assay [4], in assay [5] and in [6] was > 100 µM (inactive) each time. Also, the GI50 in [7], in assay [8], in assay [9], in [10], in assay [11] and in assay [12] was > 100 µM (inactive) in each case. Besides, the GI50 in assay [13], in [14], in assay [15], in assay [16], in assay [17] and in assay [18] was > 100 µM (inactive) in each case. Moreover, the GI50 in [19] and in assay [20] was > 100 µM (inactive) each time.

Turning to `CCCCCCCCCCCCCCCC(=O)Nc1ccn(C2CC(OP(=O)(O)OCC3OC(n4cc(F)c(=O)[nH]c4=O)CC3OC(C)=O)C(CO)O2)c(=O)n1` (stereo not given), the GI50 was 1.29 µM (inactive) in [1]; 1 µM (active) in assay [2]; 0.836 µM (active) in assay [3]; > 57.1 µM (inactive) in [4]; > 61.2 µM (inactive) in assay [5]; 8.32 µM (inactive) in [6]. The GI50 in assay [7] is 31.2 µM (inactive); in assay [8] it was 3.18 µM (inactive); in assay [9], 15.7 µM (inactive); in assay [10], 34.7 µM (inactive); in assay [11], 42.5 µM (inactive); in [12], 3.18 µM (inactive). In addition, the GI50 in assay [13] is 30.5 µM (inactive); in assay [14] it was 0.0664 µM (active); in assay [15] it was 20.8 µM (inactive); in assay [16], 13.7 µM (inactive); in assay [17] it was 3.81 µM (inactive); in assay [18] it was 2.73 µM (inactive). Also, the GI50 in assay [19] is 23.9 µM (inactive); in assay [20], 3.84 µM (inactive).

In the case of `COc1ccc2oc(=N)c(C(N)=S)cc2c1`, the GI50 in [1] was 15.4 µM (inactive); in assay [2], 20 µM (inactive); in assay [3] it was 32.1 µM (inactive); in assay [4], 26.9 µM (inactive); in [5], 29.6 µM (inactive); in [6] it was 16 µM (inactive). For the same compound, the GI50 in assay [7] was 19.9 µM (inactive); in assay [8], 18.5 µM (inactive); in assay [9], 29 µM (inactive); in assay [10] it was 25.1 µM (inactive); in [11], 21.1 µM (inactive); in [12], 20.5 µM (inactive). The GI50 is 30.4 µM (inactive) in assay [13]; 16.9 µM (inactive) in assay [14]; 23.7 µM (inactive) in assay [15]; 24.9 µM (inactive) in [16]; 21.3 µM (inactive) in [17]; 31.2 µM (inactive) in assay [18]. Also, the results for the GI50 in assay [19] and in assay [20] were 29.6 µM (inactive) and 17.4 µM (inactive), respectively.

Take `COC(=O)C1OC(O[C@H]2CC[C@]3(C)[C@H]4CC=C5[C@@H]6CC(C)(C)CC[C@]6(C(=O)OC6OCC(O)C(O)C6OC6OC(C)C(OC7OCC(O)C(O)C7O)C(O)C6O)CC[C@@]5(C)[C@]4(C)CC[C@H]3C2(C)C)C(O)C(O)C1O` (stereo not given in full): the GI50 in [1] was 16.4 µM (inactive) and 14.6 µM (inactive); in assay [2] it was 13.1 µM (inactive) and 10.2 µM (inactive); in assay [3] it was 16.9 µM (inactive) and 19.5 µM (inactive); in [4] it was 14 µM (inactive) and 16 µM (inactive); in assay [5] it was 17.1 µM (inactive); in [6] it was 18 µM (inactive) and 18.2 µM (inactive). Moreover, the GI50 was 19.7 µM (inactive) and 20.8 µM (inactive) in [7]; 18.7 µM (inactive) and 19.9 µM (inactive) in assay [8]; 18.4 µM (inactive) and 18.7 µM (inactive) in assay [9]; 19.1 µM (inactive) and 17.9 µM (inactive) in [10]; 18.5 µM (inactive) and 15.9 µM (inactive) in assay [11]; 22.6 µM (inactive) and 22.4 µM (inactive) in assay [12]. The GI50 in assay [13] was 14.4 µM (inactive) and 16.6 µM (inactive); in assay [14], 34.5 µM (inactive) and 20 µM (inactive); in assay [15] it was 28.2 µM (inactive) and 18.2 µM (inactive); in [16], 16.5 µM (inactive) and 16.1 µM (inactive); in assay [17], 23.9 µM (inactive) and 18.8 µM (inactive); in assay [18], 13.6 µM (inactive) and 17.2 µM (inactive). The GI50 in [19] is 24.8 µM (inactive) and 45.8 µM (inactive); in assay [20], 17.1 µM (inactive) and 18.4 µM (inactive).

For the compound `O=C1C2C=CC1C1C(=O)OC(=O)C21` (stereo not given), the GI50 in assay [1], in assay [2], in assay [3], in assay [4], in assay [5] and in [6] was > 100 µM (inactive) throughout. Besides, the GI50 in assay [7], in assay [8], in assay [9], in [10], in assay [11] and in assay [12] was > 100 µM (inactive) in each case. Besides, the GI50 in assay [13], in assay [14], in assay [15], in assay [16], in [17] and in assay [18] was > 100 µM (inactive) each time. Besides, the GI50 in [19] and in assay [20] was > 100 µM (inactive) each time.
